This note sets out measurements from US8101764B2, “MCH receptor antagonists” (Eli Lilly and Company, priority 2006, dated 2012).

Each structure is given as a SMILES string. Where a name gives a salt, the structure may show the parent alone.

The nature of assay [1]: In vivo efficacy in diet-induced obese rats, oral gavage, body weight change over 3 days. The note with it: 10 mg/Kg orally once a day for 3 days, diet-induced obese male Long-Evans rats. The protocol:
Vehicle consisted of 10% acacia and 0.15% saccharin in water.
House animals individually in a temperature regulated room (24° C.) with a reverse 12 hour light/dark cycle (dark 10:00/22:00). Make water and food (Teklad 95217, Harlan, WI) available ad libitum. Dose compounds orally once a day before onset of dark for 3 days. Measure daily food intake and body weight change for the 3 day period. The compound of Example 5 produced an average body weight reduction of about 11 grams @ 10 mg/Kg versus vehicle control.

Assay [2] has as its target T1, human MCHR1 (Homo sapiens, UniProt Q99705).
T1 construct: The full-length cDNA for human MCHR1 is cloned from a human adult brain cDNA library; expressed in transfected cells; host or cells: AV12 cells previously transfected with Gα15; membranes
The experiment in a line: Inhibition of MCH-stimulated GTPγ35S binding to clone 43 membranes (functional antagonism). Type of assay: biochemical. The note with it: 10 nM MCH, Kb from IC50 by modified Cheng-Prusoff. On the procedure:
(§1) The full-length cDNA for human MCHR1 is cloned from a human adult brain cDNA library (Edge Biosystems, Cat. 38356) by standard polymerase chain reaction (PCR) methodology employing the following primers: sense, 5′-GCCACCATGGACCT GGAAGCCTCGCTGC-3′ (SEQ ID NO:1); anti-sense, 5′-[…]-3′ (SEQ ID NO:2). The PCR reaction is performed in a final volume of 50 μL containing 5 μL of a 10× stock solution of PCR buffer, 1 μL of 10 mM dNTP mixture (200 μM final), 2 μL of 50 mM Mg(SO4) (2 mM final), 0.5 μL of 20 μM solutions of each primer (0.2 μM final), 5 μL of template cDNA containing 0.5 ng DNA, 0.5 μL of Platinum Taq High Fidelity DNA polymerase (Gibco Life Technologies) and 36 μL of H2O. PCR amplification is performed on a Perkin Elmer 9600 thermocycler. Perform denaturation for 90 sec at 94° C., and repeat an amplification sequence consisting of 94° C. for 25 sec, 55° C. for 25 sec and 72° C. for 2 mM 30 times, followed by a final elongation step at 72° C. for 10 min. […]
(§2) In order to generate cell lines stably expressing MCHR1, subclone the insert into the Xba I and Not I sites of pcDNA(+)-3.1-neomycin (Invitrogen). […] The G418-resistant colonies are further selected for MCHR1 expression by measuring MCH-stimulated Ca^2+ transients with a fluorometric imaging plate reader (FLIPR, Molecular Devices). […]
Background: Binding of GTPγS marks nucleotide exchange on a G protein.

Assay [3] concerns the target T1, human MCHR1. The experiment in a line: 125I-MCH competitive binding assay with clone 43 membranes. The note with it: Ki from IC50 by Cheng-Prusoff. On the procedure: as §1, with “H2O.” for “H2O. PCR amplification is performed on a Perkin Elmer 9600 thermocycler. Perform denaturation for 90 sec at 94° C., and repeat an amplification sequence consisting of 94° C. for 25 sec, 55° C. for 25 sec and 72° C. for 2 mM 30 times, followed by a final elongation step at 72° C. for 10 min.”
as §2
Binding of compounds to MCHR1 is assessed in a competitive binding assay employing ^125I-MCH, compound and clone 43 membranes. […] Non-specific binding is assessed in the presence of 0.1 μM unlabeled MCH. Bound ^125I-MCH is determined by placing sealed plates in a Microbeta Trilux (Perkin Elmer Life and Analytical Sciences Inc.) and counting after a 12 h delay. […]

T1 sequence (Q99705 whole entry): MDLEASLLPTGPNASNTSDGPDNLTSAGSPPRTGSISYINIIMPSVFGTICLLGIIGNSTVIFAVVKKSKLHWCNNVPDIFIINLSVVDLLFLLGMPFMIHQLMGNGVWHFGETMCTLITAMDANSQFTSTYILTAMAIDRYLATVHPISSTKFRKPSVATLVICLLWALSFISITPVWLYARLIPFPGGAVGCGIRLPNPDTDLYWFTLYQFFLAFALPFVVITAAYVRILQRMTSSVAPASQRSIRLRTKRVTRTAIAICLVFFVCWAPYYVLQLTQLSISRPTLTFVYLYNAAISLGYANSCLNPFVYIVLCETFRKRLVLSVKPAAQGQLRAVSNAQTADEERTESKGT

In the case of `CN(C)[C@@H]1CCN(c2ccc(N3CCc4cc(-c5ccc(Cl)cc5)sc4C3=O)cn2)C1.Cl` [Example 5, 2-(4-Chloro-phenyl)-6-[6-((R)-3-dimethylamino-pyrrolidin-1-yl)-pyridin-3-yl]-5,6-dihydro-4H-thieno[2,3-c]pyridin-7-one, hydrochloride], in assay [1], the “average body weight reduction versus vehicle control” value is listed as “about 11 grams”. For the same molecule, the Kb (commonly the equilibrium dissociation constant of an antagonist, usually derived from a functional assay) on human MCHR1 [2] is approximately 7 nM.

`CN(C)[C@@H]1CCN(c2ccc(-n3ccc4cc(-c5ccc(OC6CC6)cc5)sc4c3=O)cn2)C1` [Example 55, 2-(4-Cyclopropoxy-phenyl)-6-[6-(R)-(3-dimethylamino-pyrrolidin-1-yl)-pyridin-3-yl]-6H-thieno[2,3-c]pyridin-7-one, hydrochloride]: the Ki – broadly, the dissociation constant of the complex between target and ligand, obtained from inhibition or displacement – on human MCHR1 [3] was approximately 9 nM.
